A short description of data set [1]: Inhibition of human CDC7/ASK using FITC-labelled MCM2 substrate in presence of 1 mM of ATP.
A short description of data set [2]: Inhibition of human CDC7/ASK using FITC-labelled MCM2 substrate in presence of 5 uM of ATP.
The nature of data set [3]: Metabolic stability in human liver microsomes assessed as parent compound remaining after 30 mins. The following applies: microsomes, 0.5 h. Type of data set: ADME, Microsome.
Data set [4] can be described thus: Metabolic stability in mouse liver microsomes assessed as parent compound remaining after 30 mins. In kind it is ADME, Microsome. The note with it: microsomes, 0.5 h.
A short description of data set [5]: Inhibition of human CDC7/ASK using FITC-labelled MCM2 substrate preincubated for 30 mins followed by substrate addition and measured after 5 hrs in presence of 1 mM of ATP.
A further data set has as its system COLO 205. The experiment in a line: Induction of cell cycle arrest in human COLO205 cells assessed as accumulation of cells at sub-G1 phase at 1 uM incubated for 48 hrs by propidium iodide staining based flow cytometry analysis. Type of data set: functional. For orientation: A flow cytometer gives signals particle by particle.
Data set [6] has as its target Cell division cycle 7-related protein kinase (Homo sapiens, UniProt O00311). In words: Inhibition of CDC7 in human COLO205 cells assessed as reduction in MCM2 phosphorylation at S53 residue at 0.1 uM incubated for 48 hrs by Western blot analysis relative to control. In kind it is cell-based. The note with it: COLO 205. In general terms: A western blot detects proteins with antibodies after separation by electrophoresis.

Chain of Cell division cycle 7-related protein kinase (O00311 whole entry, looked up): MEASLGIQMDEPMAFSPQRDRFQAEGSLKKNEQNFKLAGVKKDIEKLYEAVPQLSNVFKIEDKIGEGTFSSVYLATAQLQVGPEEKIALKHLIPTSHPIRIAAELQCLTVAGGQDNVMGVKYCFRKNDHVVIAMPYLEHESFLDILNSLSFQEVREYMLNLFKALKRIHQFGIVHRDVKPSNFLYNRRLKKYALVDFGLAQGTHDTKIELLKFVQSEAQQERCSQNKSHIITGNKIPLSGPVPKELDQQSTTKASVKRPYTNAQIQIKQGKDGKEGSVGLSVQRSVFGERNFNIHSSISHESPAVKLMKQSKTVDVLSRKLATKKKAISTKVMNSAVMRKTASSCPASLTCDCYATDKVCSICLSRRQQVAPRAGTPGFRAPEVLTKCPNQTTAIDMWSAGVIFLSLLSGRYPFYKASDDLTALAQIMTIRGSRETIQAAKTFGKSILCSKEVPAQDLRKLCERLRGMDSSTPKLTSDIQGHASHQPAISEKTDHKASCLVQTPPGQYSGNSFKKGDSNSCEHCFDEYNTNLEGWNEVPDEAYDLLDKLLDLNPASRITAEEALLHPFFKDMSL

Consider `CCOC(=O)C1=C(N2CCCCCC2)O/C(=C\c2c[nH]c3ncccc23)C1=O`, for which the half-inhibitory concentration (IC50) (usually the concentration that inhibits the measured activity by half) was determined as 394 nM in data set [1], 5.6 nM in data set [2] and 3.9 nM in data set [5]. Besides, the Stability result in data set [3] and in data set [4] was “Unstable” each time.
With `CCOC(=O)C1=C(N2CCCCC2)O/C(=C\c2c[nH]c3ncccc23)C1=O`, the IC50 in data set [1] came out at 856 nM; in data set [2], 16 nM.
Regarding `CCOC(=O)C1=C(NN2CCN(CCO)CC2)O/C(=C\c2c[nH]c3ncccc23)C1=O`, the half-inhibitory concentration (IC50) was determined as 543 nM in data set [1], 10 nM in data set [2] and 1.3 nM in data set [5]. Moreover, the Activity in the data set with COLO 205 is given as 0%. The inhibition (in general, the relative decrease from the control value, in per cent) in data set [6] was 18%.
Take `CCOC(=O)C1=C(NCCOC)O/C(=C\c2c[nH]c3ncccc23)C1=O`: the results for the IC50 in data set [2] and in data set [5] were 84 nM and over 10000 nM, respectively.
As to `CCOC(=O)C1=C(Nc2ccccc2Cl)O/C(=C\c2c[nH]c3ncccc23)C1=O`, the IC50 was determined as 278 nM in data set [1], 2.4 nM in data set [2] and 0.6 nM in data set [5].
On the same counts, the results for `CCOC(=O)C1=C(N2CCC(O)CC2)O/C(=C\c2c[nH]c3ncccc23)C1=O` are 1260 nM, 14 nM and 23 nM.
For `CCOC(=O)C1=C(NN2CCN(C)CC2)O/C(=C\c2c[nH]c3ncccc23)C1=O`, the IC50 was determined as 1070 nM in data set [1], 12 nM in data set [2] and 4.5 nM in data set [5]. The Activity in the data set on COLO 205 is given as 15.9%. The inhibition in data set [6] came out at 63%.
On to `CCOC(=O)C1=C(N2CCOCC2)O/C(=C\c2c[nH]c3ncccc23)C1=O`, for which the half-maximal inhibitory concentration (IC50) came to 2680 nM in data set [1] and 35 nM in data set [2].
Consider `CCOC(=O)C1=C(NN2CCCCCC2)O/C(=C\c2c[nH]c3ncccc23)C1=O`, for which the 50% inhibitory concentration (IC50) came out at 451 nM in data set [1], 5 nM in data set [2] and 0.9 nM in data set [5]. The Activity in the data set on COLO 205 was 23.2%. Besides, in data set [6], the inhibition amounted to 100%.
On the same counts, the results for `CCOC(=O)C1=C(NN(CC)CC)O/C(=C\c2c[nH]c3ncccc23)C1=O` are 396 nM, 6.9 nM, 2.4 nM, 14.5% and 67%.
`CCOC(=O)C1=C(NC2CCN(C)CC2)O/C(=C\c2c[nH]c3ncccc23)C1=O`: in data set [2], the half-maximal inhibitory concentration (IC50) came to 93 nM.
For `CCOC(=O)C1=C(NN2CCCC2)O/C(=C\c2c[nH]c3ncccc23)C1=O`, the half-maximal inhibitory concentration (IC50) in data set [1] came to 694 nM; in data set [2], 6.9 nM; in data set [5], 1.1 nM. Also, the Activity with COLO 205 is recorded as 17.4%. Further, in data set [6], the inhibition was 100%.
In the case of `CCOC(=O)C1=C(NCCN(C)C)O/C(=C\c2c[nH]c3ncccc23)C1=O`, the IC50 in data set [2] is 538 nM.
For `CCOC(=O)C1=C(N2CCC(CO)CC2)O/C(=C\c2c[nH]c3ncccc23)C1=O`, the IC50 in data set [1] was 1340 nM; in data set [2], 15 nM; in data set [5] it was 10 nM.
In the same order, the values of `CCOC(=O)C1=C(N2CCCN(C)CC2)O/C(=C\c2c[nH]c3ncccc23)C1=O` are over 10000 nM, 133 nM and over 10000 nM.
In the case of `CCOC(=O)C1=C(NN2CCOCC2)O/C(=C\c2c[nH]c3ncccc23)C1=O`, the concentration for half-maximal inhibition (IC50) in data set [1] is 364 nM; in data set [2] it was 2.9 nM; in data set [5], 0.15 nM. Also, the Activity in the data set on COLO 205 turned out to be 46.4%. Also, in data set [6], the inhibition came to 70%.
As to `CCOC(=O)C1=C(N2CCN(CCO)CC2)O/C(=C\c2c[nH]c3ncccc23)C1=O`, the IC50 in data set [1] worked out at 6010 nM; in data set [2], 72 nM.
For `CCOC(=O)C1=C(NN(C)C2CCCCC2)O/C(=C\c2c[nH]c3ncccc23)C1=O`, the IC50 in data set [1] stood at 410 nM; in data set [2] it was 5.9 nM; in data set [5], 2 nM. For the same compound, in the data set with COLO 205, the Activity is listed as 33%. In addition, the inhibition in data set [6] stood at 35%.
Consider `CCNC1=C(C(=O)OCC)C(=O)/C(=C/c2c[nH]c3ncccc23)O1`, for which the half-inhibitory concentration (IC50) in data set [2] worked out at 32 nM.
For `CCOC(=O)C1=C(N(C)C2CCCCC2)O/C(=C\c2c[nH]c3ncccc23)C1=O`, the IC50 in data set [1] was 954 nM; in data set [2], 9.5 nM; in data set [5] it was 23 nM.
For `CCOC(=O)C1=C(NC(C)C)O/C(=C\c2c[nH]c3ncccc23)C1=O`, the IC50 in data set [2] stood at 21 nM.
On to `CCOC(=O)C1=C(NC2CCCCC2)O/C(=C\c2c[nH]c3ncccc23)C1=O`, for which the IC50 in data set [1] came out at 667 nM; in data set [2], 7.7 nM; in data set [5] it was 53 nM.
For `CCOC(=O)C1=C(NC2CCCC2)O/C(=C\c2c[nH]c3ncccc23)C1=O`, the half-inhibitory concentration (IC50) in data set [1] amounted to 1470 nM; in data set [2], 13 nM.

The record behind these values is ChEMBL document CHEMBL4828769, “Discovery of AS-0141, a Potent and Selective Inhibitor of CDC7 Kinase for the Treatment of Solid Cancers” (J Med Chem, 2021).
